Assay results: patent publication US20120213707A1, “Riboflavin Based Aerosol and Use as Placebo in Trials” (MPEX PHARMACEUTICALS, INC., priority 2009, published 2012)

Experiments:
[1] = system: Sprague-Dawley rats; experiment: 28-day aerosolized liquid inhalation (nose-only) toxicity study in Sprague-Dawley rats; format: in vivo
Description: The objective of the study was to determine the toxicity and toxicokinetic profile of the test article, riboflavin 5′-phosphate, following inhalation (nose-only) administration to rats for 28 consecutive days.
Test Article: riboflavin 5′-phosphate sodium salt hydrate; alternate identity: vitamin B2 phosphate; description: yellow crystals; potency: 74%. Vehicle article: saline (0.9% (w/v) NaCl for injection); description: clear colorless solution. Test system: rat (rattus norvegicus); strain: Sprague-Dawley Crl:CD (SD).
(§1) The test (0.5 mg/mL, 2.0 mg/mL, 5.0 mg/mL) and/or vehicle control formulations (0 mg/mL) for each group were prepared fresh daily on each day by dissolving the test article in saline. All prepared test article formulations were protected from light and kept at room temperature (RT).
Treatment: Daily inhalation by nose-only exposure for 60 minutes. Duration of treatment: 28 Days.
(§2) The aerosol was produced by metering the flow of the test article or vehicle formulations to 3 clinical nebulizers (Sidestream) connected to high velocity airstreams (10 L/min to each nebuliser). The aerosol produced was discharged through a 40 mm diameter tube into a flow-past inhalation exposure system. The airflow rate through the exposure system was monitored and recorded manually during the aerosol generation. Airflow to the exposure system was controlled by the absolute volume of air supplying the aerosol generators using variable area flow meters.
Assessments of mortality, clinical signs, body weights, food consumption, ophthalmology, functional observation battery and clinical chemistry, hematology, coagulation and urinalysis were performed. Plasma prepared from blood samples were collected from designated animals on the first and last days of the study and analyzed for Riboflavin 5′-phosphate content and toxicokinetic evaluation. All toxicology (main study) animals were euthanized upon completion of the 28-day treatment period and selected tissues were retained, weighed and examined microscopically. Toxicokinetic animals were euthanized following completion of blood sampling and were not subjected to necropsy examination or tissue collection. The following tables summarize tests, methods, and abbreviations used in hematology tests (Table 3), coagulation tests (Table 4), clinical chemistry tests (Table 5), and urinalysis (Table 6).

[2] = Aerosol particle size distribution, rat nose-only exposure system (7-Stage Mercer Cascade Impactor); format: physicochemical
Description: as §2
Determinations of aerosol concentration, particle size distribution, oxygen concentration, relative humidity and temperature was performed on test atmosphere samples collected from a representative port of the exposure system, with a collection sample flow-rate of 1 L/min. The sample flow rates were precisely controlled using variable area flow meters that were calibrated using a primary airflow calibrator before use. The absolute volume of each aerosol concentration sample was measured using a wet type gas meter.
The distribution of particle size in the generated aerosols for Groups 2 to 4 was measured weekly during the treatment period by collecting samples into a 7-Stage Mercer Cascade Impactor and the sample substrates obtained were transferred to the analytical chemistry laboratory of ITR Laboratories Canada Inc. for the chemical determination of the particle size of the aerosolized Riboflavin 5′-phosphate using a validated analytical method (ITR Study No. 40241). The distribution of particle size in the generated aerosols for Group 1 was estimated once weekly by gravimetric determination. The mass median aerodynamic diameter (MMAD) and the Geometric Standard Deviation (GSD) were calculated based on the results obtained from the impactor using a log-probit transformation.

[3] = Stability of dosing formulations in saline; format: physicochemical; conditions: saline formulations 0.5-5.0 mg/mL, refrigerated at least 48 hours or room temperature on day of preparation
Experimental: as §1
Analyses determined that all formulations were within acceptance criteria ranges (±10%). The formulation concentrations ranged between 94.4 and 106.4% of nominal concentrations and therefore considered acceptable.
Analyses determined that all formulations were within acceptance criteria ranges (±10%). The formulation concentrations ranged between 94.9 and 104.5% of nominal concentrations and were therefore considered acceptable. […]

[4] = Toxicokinetics in dogs: plasma riboflavin 5′-phosphate and metabolite riboflavin after aerosolized doses for 28 days; format: in vivo, Dog (Canis familiaris)
Experimental: Duration of treatment: 28 days. Test system: Dog (Canis familiaris); strain: Beagle.
A series of 9 blood samples (approximately 2.0 mL each) were removed from each dog on each of Days 1 and 28 of the treatment period. For this purpose, each dog was bled by venipuncture and the samples were collected into tubes containing the anticoagulant, Sodium Heparin. Tubes were placed immediately on wet ice pending processing within 30 minutes of collection. On each occasion, samples were collected at pre-dose, immediately post exposure (IPD), 15 and 30 minutes, 1, 2, 4, 6 and 24 hours post exposure. Following collection, the samples were centrifuged (approximately 4° C.) and the resulting plasma was recovered and stored frozen at ITR (approximately −20° C.) in labeled tubes protected from light pending shipment (on dry ice).

[5] = Group 2 Low Dose, 0.5 mg/mL formulation
[6] = Group 3 Mid Dose, 2.0 mg/mL formulation
[7] = Group 4 High Dose, 5.0 mg/mL formulation

Q: With `Cc1cc2nc3c(=O)[nH]c(=O)nc-3n(C[C@H](O)[C@H](O)[C@H](O)COP(=O)(O)O)c2cc1C` [riboflavin 5′-phosphate] as the compound, how does the “No Observed Effect Level (NOEL)” value ([1]; Sprague-Dawley rats, once daily inhaled, 28 consecutive days, high dose group) read?
A: 2.479 mg/kg/day

Q: And the clinical chemistry ([1]; rat, in vivo)?
A: no changes noted in any clinical chemistry parameters that were considered to be treatment-related

Q: And the coagulation times ([1]; rat, in vivo)?
A: unaffected by treatment

Q: And the functional observation battery ([1]; rat, in vivo)?
A: no changes noted in any functional observation battery parameters that were considered to be treatment-related

Q: And the hematology ([1]; rat, in vivo)?
A: no changes noted in any haematology parameters that were considered to be treatment-related

Q: What about the “macroscopic findings at necropsy” value ([1]; rat, in vivo) of the same compound?
A: no findings attributed to the test article administration

Q: What about the microscopic findings ([1]; rat, in vivo) of the same compound?
A: no microscopic findings that were considered to be test article related

Q: And the urinalysis ([1]; rat, in vivo)?
A: no changes in any of the urinalysis parameters evaluated that were considered affected by treatment

Q: And the adverse effects ([1]; rat, in vivo, 2.4 mg/kg/day)?
A: no adverse effects were observed

Q: What about the mortality ([1]; rats, 0.244 mg/kg/day, considered accidental (restraint), not test article related) of the same compound?
A: One male rat dosed at 0.244 mg/kg/day was found dead on Day 12

Q: What about the “local or systemic toxicity (histology of lymphoid and respiratory tract tissues)” value ([1]; rats, 28 days inhalation) of the same compound?
A: no indications of local or systemic toxicity

Q: And the tolerability ([1]; rats, nose-only inhalation, 28 consecutive days)?
A: well tolerated

Q: What about the “% of particles <3.1 μm” value [2, 5] of the same compound?
A: 91.8%

Q: And the MMAD [2, 5]?
A: 1.2 μm

Q: And the “% of particles <3.1 μm” value [2, 6]?
A: 91.9%

Q: What about the MMAD [2, 6] of the same compound?
A: 1.2 μm

Q: And the “% of particles <3.1 μm” value [2, 7]?
A: 87.8%

Q: And the MMAD [2, 7]?
A: 1.2 μm

Q: What about the formulation stability ([3]; dog study) of the same compound?
A: stable

Q: And the formulation stability ([3]; rat study)?
A: stable

Q: What about the “accumulation following repeated dosing” value ([4]; 28 days) of the same compound?
A: no accumulation

Q: And the “gender related difference of riboflavin plasma exposure” value ([4]; Day 1, single administration)?
A: no observed apparent gender related difference

Q: What about the “dose dependence of riboflavin plasma exposures (Cmax and AUC(0-T))” value ([4]; both sexes, Day 1) of the same compound?
A: increased as a function of the administered doses

Q: What about the “dose dependence of riboflavin plasma exposures (Cmax and AUC(0-T))” value ([4]; both sexes, Day 28) of the same compound?
A: increased as a function of the administered doses

Q: What about the “dose proportionality of riboflavin exposures (Cmax and AUC(0-T))” value ([4]; both sexes, overall) of the same compound?
A: appeared to be dose proportional

Q: And the “gender difference in riboflavin exposure” value ([4]; overall)?
A: no gender difference in riboflavin exposure

Q: And the “riboflavin 5′-phosphate concentrations in plasma of treated animals” value ([4]; single or repeated exposures)?
A: detected in only a single treated animal
